One assay deals with HepG2 cells. Description: MTT assay, compounds related to LD030 on HepG2 cells. The assay is classed as cell-based, human. As to conditions: 48 hours; for inhibition at 0.1 µM / inhibition at 1 µM / inhibition at 10 µM / inhibition at 100 µM: Homo sapiens, HepG2, read-out: Effects on HepG2 Cells (inhibitory percentage). The protocol: (§1) MTT assay was used to detect cell viability after being treated with different compounds of the present invention related to LD030. The cell lines treated were on non-small lung cancer cell line A549, HepG2 cells and Panc1 cells.
(§2) MTT preservation solution preparation: 0.5 g MTT was dissolved in 100 ml of phosphate buffer solution (PBS), and bacteria contaminates were removed with a 0.22 μm membrane filter to obtain 0.5% MTT solution, which was stored in the dark at −20° C.
(§3) MTT working solution preparation: MTT preservation solution was diluted 10 times with sterile PBS to obtain MTT working solution.
(§4) 1640 complete medium preparation: 1640 base medium was added with an amount of fetal bovine serum (FBS) so that the medium contains 10% FBS by volume. Then an amount of double-antibody (i.e., penicillin and streptomycin) was added to make final concentration of penicillin at 100 units/ml and streptomycin at 100 ug/ml.
(§5) The experimental procedure is as follows:
(§6) (1) Take trypsin digested logarithmic phase cells and adjust the concentration of the cell suspension to 6×10^4 cell/ml, and then add 100 ul suspension of the cells under the test to each well on a 96-well plate and adjusted to a density of 6000 cells/well. The edge orifice is filled with sterile PBS.
(§7) (2) Placed the 96-well plate into a 37° C. incubator with 5% CO2 and incubate it overnight.
(§8) (3) Dissolve the test compounds in 200 ul DMSO to get a 5 mg/ml solution and dilute it to get 100 uM, 10 uM, 1 uM and 0.1 uM solutions. Add 100 ul of a solution to each of three repeat wells. Set a control well which has cells but without the compound of the present invention and a blank cell which contains no cells.
(§9) (4) Put the 96-well plate into a 37° C. incubator with 5% CO2 and incubate it for 48 hours. Examine the cells daily under a microscope.
(§10) (5) After being cultured for 48 hours, centrifuge and discard the culture liquid. Add 100 ul MTT working solution to each well, and continue incubating for 4 h.
(§11) (6) Terminate the culture, and carefully remove the culture medium. Then add 100 ul DMSO to each well and shake it at a low speed in a shaker for 10 min to make all crystals fully dissolved. The absorbance value of each well was measured by an enzyme-linked immunosorbent detector at the OD570 nm, and the inhibition rate of the different compounds with different concentration on cell growth can be obtained.
On the technique in general: Tetrazolium dyes change colour on reduction, which living cells bring about.

The test system of the next assay is Panc1 cells. In words: MTT assay, compounds related to LD030 on Panc1 cells. The assay is classed as cell-based, human. As to conditions: 48 hours; for inhibition at 0.1 µM / inhibition at 1 µM / inhibition at 10 µM / inhibition at 100 µM: Homo sapiens, PANC-1, read-out: Effects on Panc1 Cells (inhibitory percentage). The protocol: as §1, §2, §3, §4, §5, §6, §7, §8, §9, §10, §11

In assay [1] the test system is non-small lung cancer cell line A549. Description: MTT assay, compounds related to LD030 on A549 cells. It counts as cell-based. As to conditions: for inhibition at 0.1 µM / inhibition at 1 µM / inhibition at 10 µM / inhibition at 100 µM: Homo sapiens, A549, read-out: Effects on A549 Cells (inhibitory percentage); for inhibition at 0.1 µM / inhibition at 1 µM / inhibition at 10 µM / inhibition at 100 µM / Effects on A549 Cells (inhibitory percentage): 48 hours. As to the method: as §1, §2, §3, §4, §5, §6, §7, §8, §9, §10, §11

From patent publication US9522935B2, “Commands and method of treating cancer via RHO pathway” (priority 2013, dated 2016) come the findings set out here.

With `CC(CCC(=O)C(C)(C)O)C1CC[C@@]2(C)C34CC[C@H]5C(C)(C)C(=O)CC[C@]5(C)C3(CC[C@]12C)O4` (stereo partly drawn) [LD 025], the results for the inhibition at 0.1 µM (in the assay on HepG2 cells (0.1 μM); with Panc1 cells (0.1 μM); in assay [1] (0.1 μM)) were -1.15%, -16.5% and 25.2%, respectively. For the same molecule, the inhibition at 1 µM is -19.1% in the assay with HepG2 cells (1 μM), -12.8% in the assay with Panc1 cells (1 μM) and 1.71% in assay [1] (1 μM). The inhibition at 10 µM in the assay with HepG2 cells (10 μM) was -1.79%; in the assay with Panc1 cells (10 μM) it was -9.57%; in assay [1] (10 μM) it was 0.51%. For the same molecule, the inhibition at 100 µM with HepG2 cells (100 μM) is 20.5%; in the assay on Panc1 cells (100 μM) it was -16%; in assay [1] (100 μM), 16.9%.
Turning to `CC(C)=CCC[C@@H](C)[C@H]1CC[C@@]2(C)C3=C(CC[C@]12C)[C@@]1(C)CCC(=O)C(C)(C)[C@@H]1CC3` [LD 012], the “Effects on HepG2 Cells (inhibitory percentage)” value with HepG2 cells (0.1 μM) is 10.53%; in the assay with HepG2 cells (1 μM), −15.82%; in the assay on HepG2 cells (10 μM) it was −1.79%; in the assay on HepG2 cells (100 μM), 47.72%. The “Effects on Panc1 Cells (inhibitory percentage)” value with Panc1 cells (0.1 μM) was found to be 5.68%; with Panc1 cells (1 μM) it was 5.68%; in the assay with Panc1 cells (10 μM), 10.20%; in the assay with Panc1 cells (100 μM), 39.54%. In addition, the “Effects on A549 Cells (inhibitory percentage)” value in assay [1] (0.1 μM) was found to be 1.31%; in assay [1] (1 μM) it was 28.04%; in assay [1] (10 μM) it was 39.34%; in assay [1] (100 μM) it was 91.76%. Further, the “inhibition rate on A549” value in assay [1] (concentration not given) was “more than 90%”.
Consider `CC(=O)O[C@H]1CC[C@@]2(C)[C@@H](CCC34OC32CC[C@]2(C)C(C(C)CCC(O)C(C)(C)O)CC[C@@]42C)C1(C)C` (stereo partly drawn) [LD027], for which the values for the inhibition at 0.1 µM (with Panc1 cells (0.1 μM); in assay [1] (0.1 μM)) were 2.21% and -1.4%, respectively. The inhibition at 1 µM with Panc1 cells (1 μM) is 10.1%; in assay [1] (1 μM) it was -4.98%. Also, the inhibition at 10 µM with Panc1 cells (10 μM) was determined as 16.7%; in assay [1] (10 μM), 12.9%. In addition, the inhibition at 100 µM came out at 28.7% with Panc1 cells (100 μM) and 58.6% in assay [1] (100 μM).
Take `CC(=O)OC(CCC(C)C1CC[C@@]2(C)C3=C(CC[C@]12C)[C@@]1(C)CC[C@H](OC(C)=O)C(C)(C)[C@@H]1CC3)C(C)(C)OC(C)=O` (stereo partly drawn) [LD 022]: the “Effects on HepG2 Cells (inhibitory percentage)” value was 20.67% in the assay on HepG2 cells (0.1 μM), 31.18% in the assay with HepG2 cells (1 μM), 24.88% in the assay on HepG2 cells (10 μM) and 24.54% in the assay with HepG2 cells (100 μM). Moreover, the “Effects on Panc1 Cells (inhibitory percentage)” value in the assay on Panc1 cells (0.1 μM) is −6.95%; with Panc1 cells (1 μM), −5.28%; with Panc1 cells (10 μM) it was −2.48%; in the assay with Panc1 cells (100 μM), −6.24%. For the same molecule, the “Effects on A549 Cells (inhibitory percentage)” value in assay [1] (0.1 μM) turned out to be 4.73%; in assay [1] (1 μM), 8.99%; in assay [1] (10 μM), 6.92%; in assay [1] (100 μM), 35.89%.
For `CC(=O)O[C@H]1CC[C@]2(C)C3=C(CC[C@H]2C1(C)C)[C@]1(C)CCC(C(C)CCC2OC2(C)C)[C@@]1(C)CC3` (stereo partly drawn) [LD 026-1], the inhibition at 0.1 µM in the assay with HepG2 cells (0.1 μM) is -3.32%; in the assay with Panc1 cells (0.1 μM), -2.84%; in assay [1] (0.1 μM), 21.8%. In addition, the results for the inhibition at 1 µM (in the assay on HepG2 cells (1 μM); in the assay with Panc1 cells (1 μM); in assay [1] (1 μM)) were -0.13%, 9.46% and 6.66%, respectively. Further, the figures for the inhibition at 10 µM (in the assay with HepG2 cells (10 μM); in the assay with Panc1 cells (10 μM); in assay [1] (10 μM)) were 12.7%, 8.83% and 8.3%, respectively. In addition, the values for the inhibition at 100 µM (with HepG2 cells (100 μM); in the assay on Panc1 cells (100 μM); in assay [1] (100 μM)) were 58.1%, 34.4% and 39.8%, respectively.
Regarding `CC(=O)OC(CCC(C)C1CC[C@@]2(C)C3=C(CC[C@]12C)[C@@]1(C)CCC(=O)C(C)(C)[C@@H]1CC3)C(C)(C)OC(C)=O` (stereo partly drawn) [LD 014], the inhibition at 0.1 µM with HepG2 cells (0.1 μM) was 0.64%; with Panc1 cells (0.1 μM), -5.26%; in assay [1] (0.1 μM) it was 21.3%. In addition, the inhibition at 1 µM in the assay with HepG2 cells (1 μM) is -20.7%; in the assay with Panc1 cells (1 μM), -3.05%; in assay [1] (1 μM) it was 9.46%. The inhibition at 10 µM with HepG2 cells (10 μM) was found to be 2.93%; in the assay on Panc1 cells (10 μM), 3.89%; in assay [1] (10 μM) it was 3.02%. The inhibition at 100 µM in the assay on HepG2 cells (100 μM) turned out to be 61.4%; with Panc1 cells (100 μM), 24.1%; in assay [1] (100 μM) it was 34.6%.
Turning to `CC(=O)OC(CCC(C)C1CC[C@@]2(C)C34CC[C@H]5C(C)(C)[C@@H](OC(C)=O)CC[C@]5(C)C3(CC[C@]12C)O4)C(C)(C)OC(C)=O` (stereo partly drawn) [LD023], the “Effects on HepG2 Cells (inhibitory percentage)” value was determined as 26.53% in the assay on HepG2 cells (0.1 μM), 27.64% with HepG2 cells (1 μM), 19.13% in the assay with HepG2 cells (10 μM) and 23.00% with HepG2 cells (100 μM). Moreover, the “Effects on Panc1 Cells (inhibitory percentage)” value in the assay with Panc1 cells (0.1 μM) is given as −5.92%; in the assay on Panc1 cells (1 μM) it was −1.12%; in the assay with Panc1 cells (10 μM), −2.56%; in the assay with Panc1 cells (100 μM), 25.26%. For the same molecule, the “Effects on A549 Cells (inhibitory percentage)” value in assay [1] (0.1 μM) was 8.01%; in assay [1] (1 μM), 8.30%; in assay [1] (10 μM), 6.11%; in assay [1] (100 μM), 12.70%.
Take `CC(=O)O[C@H]1CC[C@@]2(C)[C@@H](CCC34OC32CC[C@]2(C)C(C(C)CCC3OC3(C)C)CC[C@@]42C)C1(C)C` (stereo partly drawn) [LD 026-2]: the values for the inhibition at 0.1 µM (with HepG2 cells (0.1 μM); in the assay with Panc1 cells (0.1 μM); in assay [1] (0.1 μM)) were 20.3%, 8.79% and 2.51%, respectively. Moreover, the inhibition at 1 µM with HepG2 cells (1 μM) was 32.8%; with Panc1 cells (1 μM) it was 7.59%; in assay [1] (1 μM) it was 6.88%. The inhibition at 10 µM was 20.8% with HepG2 cells (10 μM), 14.6% in the assay on Panc1 cells (10 μM) and -2.33% in assay [1] (10 μM). Besides, the results for the inhibition at 100 µM (in the assay on HepG2 cells (100 μM); in the assay with Panc1 cells (100 μM); in assay [1] (100 μM)) were 33.9%, 21.5% and 33%, respectively.
Take `CC(CCC(O)C(C)(C)O)C1CC[C@@]2(C)C34CC[C@H]5C(C)(C)[C@@H](O)CC[C@]5(C)C3(CC[C@]12C)O4` (stereo partly drawn) [LD 024]: the inhibition at 0.1 µM in the assay with HepG2 cells (0.1 μM) was 22%; in the assay with Panc1 cells (0.1 μM), -7.19%; in assay [1] (0.1 μM) it was 1.38%. The figures for the inhibition at 1 µM (with HepG2 cells (1 μM); in the assay with Panc1 cells (1 μM); in assay [1] (1 μM)) were 14.3%, -8.39% and 6.04%, respectively. Besides, the figures for the inhibition at 10 µM (in the assay with HepG2 cells (10 μM); in the assay with Panc1 cells (10 μM); in assay [1] (10 μM)) were 5.86%, -13% and -0.22%, respectively. Moreover, the inhibition at 100 µM in the assay on HepG2 cells (100 μM) is 2.1%; in the assay on Panc1 cells (100 μM), 6.95%; in assay [1] (100 μM), 34.6%.
For `CC(=O)O[C@H]1CC[C@]2(C)C3CC[C@]4(C)C(C(C)CCC(O)C(C)(C)O)CC[C@@]4(C)C3CC[C@H]2C1(C)C` (stereo partly drawn) [LD 028], the inhibition at 0.1 µM was 29.4% with HepG2 cells (0.1 μM), -9.19% in the assay on Panc1 cells (0.1 μM) and 3.24% in assay [1] (0.1 μM). Further, the inhibition at 1 µM in the assay with HepG2 cells (1 μM) is 37.4%; in the assay on Panc1 cells (1 μM), -0.48%; in assay [1] (1 μM), 10%. Further, the inhibition at 10 µM was 67.8% in the assay on HepG2 cells (10 μM), -0.4% with Panc1 cells (10 μM) and -1.75% in assay [1] (10 μM). Also, the inhibition at 100 µM with HepG2 cells (100 μM) came to 45.8%; with Panc1 cells (100 μM) it was 0.16%; in assay [1] (100 μM), 29.2%.
